The values below are quoted from earlier work in patent publication EP1941860A1, “Topical formulations” (ACO Hud Nordic AB, priority 2006, dated 2008).

The conditions of the data set: in prior art formulations.

As to `CC(O)C(=O)O` (stereo not shown) [lactic acid], the “concentration producing a stinging action” value is “about 0.5 % by weight of the formulation”.
